What is called EC50 is the midpoint of the concentration-response curve.

Results on ten compounds are retold here after US20230373974A1, “MODULATORS OF CYSTIC FIBROSIS TRANSMEMBRANE CONDUCTANCE REGULATOR” (VERTEX PHARMACEUTICALS INCORPORATED, priority 2020, published 2023).

Experiment [1] has as its target CFTR (Homo sapiens, UniProt P13569). In words: standard Ussing Chamber Assay for CFTR potentiator activity. It is filed as cell-based.
The target of experiment [2] is T1, F508del in NIH 3T3 cells (Homo sapiens, UniProt P13569, DEL508-508).
T1 construct: expressed in transfected cells
In words: 3T3 assay: membrane potential optical assay for F508del correction. Type of experiment: cell-based, mouse. The conditions noted are these: F508del NIH 3T3 cells; for Emax: NIH3T3, efficacy compared to lumacaftor in combination with acutely added 300 nM Ivacaftor, read-out: 3T3 Max Activity (%). The source says:
Membrane Potential Optical Methods for Assaying F508del Modulation Properties of Compounds The assay utilizes fluorescent voltage sensing dyes to measure changes in membrane potential using a fluorescent plate reader (e.g., FLIPR III, Molecular Devices, Inc.) as a readout for increase in functional F508del in NIH 3T3 cells. The driving force for the response is the creation of a chloride ion gradient in conjunction with channel activation by a single liquid addition step after the cells have previously been treated with compounds and subsequently loaded with a voltage sensing dye. 2. Identification of Corrector Compounds To identify correctors of F508del, a single-addition HTS assay format was developed. This HTS assay utilizes fluorescent voltage sensing dyes to measure changes in membrane potential on the FLIPR III as a measurement for increase in gating (conductance) of F508del in F508del NIH 3T3 cells. The F508del NIH 3T3 cell cultures were incubated with the corrector compounds at a range of concentrations for 18-24 hours at 37° C., and subsequently loaded with a redistribution dye. The driving force for the response is a Cl^− ion gradient in conjunction with channel activation with forskolin in a single liquid addition step using a fluorescent plate reader such as FLIPR III. […] Solutions […] Chloride-free bath solution: Chloride salts in Bath Solution #1 (above) are substituted with gluconate salts. 4. Cell Culture NIH3T3 mouse fibroblasts stably expressing F508del are used for optical measurements of membrane potential. The cells are maintained at 37° C. in 5% CO2 and 90% humidity in Dulbecco's modified Eagle's medium supplemented with 2 mM glutamine, 10% fetal bovine serum, 1×NEAA, b-ME, 1×pen/strep, and 25 mM HEPES in 175 cm^2 culture flasks. For all optical assays, the cells were seeded at ˜20,000/well in 384-well Matrigel-coated plates. For the correction assays, the cells are cultured at 37° C. with and without compounds for 16-24 hours.

The target of experiment [3] is CFTR-mediated chloride transport in human intestinal epithelial enteroid cells (Homo sapiens, UniProt P13569). In words: Enteroid assay: membrane potential dye assay (Enteroid Assay A or B). It is filed as cell-based. The conditions noted are these: for Ent. Max Activity (%): chloride transport as percentage of triple combination control (% Activity). The protocol: Base medium (ADF+++) consisted of Advanced DMEM/Ham's F12, 2 mM Glutamax, 10 mM HEPES, […] penicillin/streptomycin.
Intestinal enteroid maintenance medium (IEMM) consisted of ADF+++, 1×B27 supplement, 1×N2 supplement, 1.25 mM N-acetyl cysteine, 10 mM Nicotinamide, 50 ng/mL hEGF, 10 nM Gastrin, 1 μg/mL hR-spondin-1, 100 ng/mL hNoggin, TGF-b type 1 inhibitor A-83-01, 100 μg/mL Primocin, 10 μM P38 MAPK inhibitor SB202190.
Bath 1 Buffer consisted of 1 mM MgCl2, 160 mM NaCl, 4.5 mM KCl, 10 mM HEPES, 10 mM Glucose, 2 mM CaCl2).
Chloride Free Buffer consisted of 1 mM Magnesium Gluconate, 2 mM Calcium Gluconate, 4.5 mM Potassium Gluconate, 160 mM Sodium Gluconate, 10 mM HEPES, 10 mM Glucose.
Bath1 Dye Solution consisted of Bath 1 Buffer, 0.04% Pluronic F127, 20 μM Methyl Oxonol, 30 μM CaCCinh-A01, 30 μM Chicago Sky Blue.
Chloride Free Dye Solution consisted of Chloride Free Buffer, 0.04% Pluronic F127, 20 μM Methyl Oxonol, 30 μM CaCCinh-A01, 30 μM Chicago Sky Blue.
Chloride Free Dye Stimulation Solution consisted of Chloride Free Dye Solution, 10 μM forskolin, 100 μM IBMX, and 300 nM Compound III.
Human intestinal epithelial enteroid cells were obtained from the Hubrecht Institute for Developmental Biology and Stem Cell Research, Utrecht, The Netherlands and expanded in T-Flasks as previously described (Dekkers J F, Wiegerinck C L, de Jonge H R, Bronsveld I, Janssens H M, de Winter-de Groot K M, Brandsma A M, de Jong N W M, Bijvelds M J C, Scholte B J, Nieuwenhuis E E S, van den Brink S, Clevers H, van der Ent C K, Middendorp S and M Beekman J M. A functional CFTR assay using primary cystic fibrosis intestinal organoids. Nat Med. 2013 July; 19(7):939-45).
3. Enteroid Cell Harvesting and Seeding […]
Enteroid cells were incubated with test compound in IEMM for 18-24 hours at 37° C., 95% humidity and 5% CO2. […] Chloride transport was initiated by addition of Chloride Free Dye Stimulation Solution and the fluorescence signal was read for 15 min. […] Chloride transport was then expressed as a percentage of the chloride transport following treatment with 3 μM (S)—N-((6-aminopyridin-2-yl)sulfonyl)-6-(3-fluoro-5-isobutoxyphenyl)-2-(2,2,4-trimethylpyrrolidin-1-yl)nicotinamide, 3 μM (R)-1-(2,2-difluorobenzo[d][1,3]dioxol-5-yl)-N-(1-(2,3-dihydroxypropyl)-6-fluoro-2-(1-hydroxy-2-methylpropan-2-yl)-1H-indol-5-yl)cyclopropanecarboxamide and 300 nM acute N-[2,4-bis(1,1-dimethylethyl)-5-hydroxyphenyl]-1,4-dihydro-4-oxoquinoline-3-carboxamide triple combination control (% Activity). […]
Enteroid cells were incubated with test compound in IEMM for 18-24 hours at 37° C., 95% humidity and 5% CO2. […] Chloride transport was initiated by addition of Chloride Free Dye Stimulation Solution and the fluorescence signal was read for 15 min. […]

T1 sequence (P13569 with tags, fused parts or gaps DEL508-508): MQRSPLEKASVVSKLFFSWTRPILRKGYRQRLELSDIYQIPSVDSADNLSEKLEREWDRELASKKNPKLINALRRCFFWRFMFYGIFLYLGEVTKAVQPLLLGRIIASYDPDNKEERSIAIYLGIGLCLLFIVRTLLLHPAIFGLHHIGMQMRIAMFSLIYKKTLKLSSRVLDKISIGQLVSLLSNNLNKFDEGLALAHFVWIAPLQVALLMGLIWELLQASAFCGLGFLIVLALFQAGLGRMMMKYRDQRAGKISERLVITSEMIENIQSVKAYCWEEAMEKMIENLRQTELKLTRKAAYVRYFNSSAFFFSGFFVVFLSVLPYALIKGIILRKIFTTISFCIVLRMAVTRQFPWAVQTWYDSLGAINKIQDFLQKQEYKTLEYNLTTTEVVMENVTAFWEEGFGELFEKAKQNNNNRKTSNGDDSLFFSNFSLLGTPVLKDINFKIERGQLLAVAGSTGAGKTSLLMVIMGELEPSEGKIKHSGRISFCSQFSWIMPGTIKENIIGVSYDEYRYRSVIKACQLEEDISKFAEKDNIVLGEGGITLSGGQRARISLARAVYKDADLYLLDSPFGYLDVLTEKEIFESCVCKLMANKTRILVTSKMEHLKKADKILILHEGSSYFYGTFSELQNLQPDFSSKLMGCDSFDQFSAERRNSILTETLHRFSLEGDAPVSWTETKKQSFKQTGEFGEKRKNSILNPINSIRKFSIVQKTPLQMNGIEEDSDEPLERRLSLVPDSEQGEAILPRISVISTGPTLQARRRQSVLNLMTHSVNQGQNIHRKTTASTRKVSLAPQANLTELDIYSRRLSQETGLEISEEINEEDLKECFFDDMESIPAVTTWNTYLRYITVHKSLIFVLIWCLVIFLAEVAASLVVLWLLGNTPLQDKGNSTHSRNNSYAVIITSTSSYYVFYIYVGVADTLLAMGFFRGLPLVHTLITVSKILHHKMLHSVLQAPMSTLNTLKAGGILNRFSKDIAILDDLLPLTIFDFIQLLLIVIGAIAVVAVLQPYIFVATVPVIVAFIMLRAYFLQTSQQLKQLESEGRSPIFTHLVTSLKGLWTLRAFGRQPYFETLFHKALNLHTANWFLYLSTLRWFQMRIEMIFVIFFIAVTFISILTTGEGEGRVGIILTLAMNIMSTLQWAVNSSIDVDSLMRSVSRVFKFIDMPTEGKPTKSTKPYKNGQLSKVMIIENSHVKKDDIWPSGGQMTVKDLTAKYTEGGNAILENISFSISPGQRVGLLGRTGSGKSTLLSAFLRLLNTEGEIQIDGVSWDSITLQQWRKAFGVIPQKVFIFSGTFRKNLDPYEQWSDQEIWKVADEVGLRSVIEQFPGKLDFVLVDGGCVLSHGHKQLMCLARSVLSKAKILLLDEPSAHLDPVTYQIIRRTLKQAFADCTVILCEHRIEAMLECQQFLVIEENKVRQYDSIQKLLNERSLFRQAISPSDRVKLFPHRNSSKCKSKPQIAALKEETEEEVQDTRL
CFTR-mediated chloride transport in human intestinal epithelial enteroid cells, sequence (P13569 whole entry): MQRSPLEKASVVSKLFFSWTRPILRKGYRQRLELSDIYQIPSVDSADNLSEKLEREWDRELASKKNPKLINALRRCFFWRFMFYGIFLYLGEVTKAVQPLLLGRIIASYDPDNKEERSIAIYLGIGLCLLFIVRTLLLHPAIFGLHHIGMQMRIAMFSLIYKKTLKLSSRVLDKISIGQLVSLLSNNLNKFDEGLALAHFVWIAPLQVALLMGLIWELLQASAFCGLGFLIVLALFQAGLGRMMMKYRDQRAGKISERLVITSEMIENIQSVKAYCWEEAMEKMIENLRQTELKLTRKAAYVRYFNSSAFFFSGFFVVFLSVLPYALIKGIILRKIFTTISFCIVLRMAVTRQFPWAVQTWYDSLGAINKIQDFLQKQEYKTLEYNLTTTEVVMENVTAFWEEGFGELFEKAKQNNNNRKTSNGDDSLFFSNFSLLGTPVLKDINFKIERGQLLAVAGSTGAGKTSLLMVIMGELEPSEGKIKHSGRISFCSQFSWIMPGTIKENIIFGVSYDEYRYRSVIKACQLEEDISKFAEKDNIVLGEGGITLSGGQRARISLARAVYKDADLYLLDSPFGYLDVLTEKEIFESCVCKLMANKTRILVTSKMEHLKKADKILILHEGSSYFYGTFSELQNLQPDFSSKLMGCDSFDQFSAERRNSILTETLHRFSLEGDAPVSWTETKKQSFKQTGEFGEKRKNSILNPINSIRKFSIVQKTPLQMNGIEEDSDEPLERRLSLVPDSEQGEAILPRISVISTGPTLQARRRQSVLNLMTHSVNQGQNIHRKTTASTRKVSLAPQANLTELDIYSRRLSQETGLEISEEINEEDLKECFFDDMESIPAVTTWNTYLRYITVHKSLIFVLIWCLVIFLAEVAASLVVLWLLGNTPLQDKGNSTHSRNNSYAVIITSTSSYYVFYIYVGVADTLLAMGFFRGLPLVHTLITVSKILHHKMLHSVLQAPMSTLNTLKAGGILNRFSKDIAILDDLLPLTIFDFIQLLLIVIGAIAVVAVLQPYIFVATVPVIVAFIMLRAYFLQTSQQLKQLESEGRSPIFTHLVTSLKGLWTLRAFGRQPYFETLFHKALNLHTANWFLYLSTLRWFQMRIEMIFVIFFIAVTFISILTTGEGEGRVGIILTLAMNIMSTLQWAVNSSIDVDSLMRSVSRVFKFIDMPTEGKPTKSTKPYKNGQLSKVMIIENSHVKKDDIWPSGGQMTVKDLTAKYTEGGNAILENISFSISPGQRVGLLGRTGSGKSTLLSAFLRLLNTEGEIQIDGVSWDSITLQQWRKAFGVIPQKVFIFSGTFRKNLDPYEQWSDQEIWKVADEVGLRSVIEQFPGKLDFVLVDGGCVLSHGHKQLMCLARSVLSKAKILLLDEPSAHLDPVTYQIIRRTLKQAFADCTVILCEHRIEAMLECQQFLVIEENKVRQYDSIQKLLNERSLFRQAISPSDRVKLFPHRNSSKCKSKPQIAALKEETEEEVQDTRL
CFTR, sequence (P13569 whole entry): as above

On to `C[C@@H]1CCCCC[C@](O)(C(F)(F)F)C2=NN=C(O2)c2nc(c(C(F)(F)F)cc2N)O1` [(6R,12R)-17-Amino-12-methyl-6,15-bis(trifluoromethyl)-13,19-dioxa-3,4,18-triazatricyclo[12.3.1.12,5]nonadeca-1(18),2,4,14,16-pentaen-6-ol], for which the “CFTR modulating activity (CFTR potentiator activity)” value in experiment [1] is listed as “confirmed”.
Consider `Cc1cc(C)c(-n2nc(NS(=O)(=O)c3ccccc3)c3ccc(C(C)(C)C)nc32)c(C)c1` [Compound 33, N-[6-tert-butyl-1-(2,4,6-trimethylphenyl)pyrazolo[3,4-b]pyridin-3-yl]benzenesulfonamide], for which, in experiment [2] (incubated with compound 18-24 hours at 37° C., forskolin activation), the EC50 was less than 1 µM. In addition, the “Ent. Max Activity (%)” value in experiment [3] is recorded as “+ (+ is <300%)”.
On to `Cc1ccccc1-c1nc(NS(=O)(=O)c2cnn(C)c2)cc2oc3ccccc3c12` [Compound 79, 1-Methyl-N-[1-(o-tolyl)benzofuro[3,2-c]pyridin-3-yl]pyrazole-4-sulfonamide], for which the “Ent. Max Activity (%)” value in experiment [3] was “++ (++ is 30-60%)”. The half-maximal effective concentration (EC50) in experiment [3] (enteroid cells, 18-24 hours incubation, acute 10 μM forskolin and 300 nM ivacaftor, read-out: Ent. EC50) fell in the range of 3 to 30 µM.
Turning to `Cc1ccccc1-c1cc2oc3ccccc3c2c(NS(=O)(=O)c2cnn(C)c2)n1` [Compound 80], in experiment [3], the “Ent. Max Activity (%)” value is recorded as “+ (+ is <300%)”.
`Cc1cc(C)c(-c2nnc(NS(=O)(=O)c3ccccc3)c3ccc(C(C)(C)C)nc23)c(C)c1` [Compound 90]: in experiment [2], the Emax is less than 30%.
The same measure, in the same setting: for `Cc1cc(C)cc(-n2c(NS(=O)(=O)c3ccccc3)nc3cc(C(C)(C)C)ccc32)c1` [Compound 91] the value was less than 30%; for `Cc1cc(C)cc(-n2c(NS(=O)(=O)c3ccccc3)nc3ccc(C(C)(C)C)cc32)c1` [Compound 92], less than 30%.
On the same count and under the same terms, for `CC(C)(C)c1ccc2nc(NS(=O)(=O)c3ccccc3)[nH]c2c1` [Compound 93] the value was less than 30%.
Same read-out and setting: for `Cc1cc(C)c(Oc2cc(C(C)(C)C)cc3nnc(NS(=O)(=O)c4cccc(N)c4)n23)c(C)c1` [Compound 94] the value was less than 30%.
For `Cc1cc(C)c(Oc2cc(C(C)(C)C)cc3nnc(NS(=O)(=O)c4ccccc4)n23)c(C)c1` [Compound 95], the Emax in experiment [2] was less than 30%.
